Results: the supplement of paper PMC10307832

Tests used:
Assay in all cases: relative viability (nuclei count vs DMSO), 5 days (fraction); higher = more cells survive
Erlotinib + Tozasertib = compound: C#Cc1cccc(Nc2ncnc3cc(OCCOC)c(OCCOC)cc23)c1 [Erlotinib] + Cc1cc(Nc2cc(N3CCN(C)CC3)nc(Sc3ccc(NC(=O)C4CC4)cc3)n2)n[nH]1 [Tozasertib] (partner 0.1 µM)
How it was run: (§1)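 Values are medians from duplicate plates. Each reflects relative viability, defined as the nuclei count of treated wells over that of vehicle wells. Lung cancer cell lines in 1536-well plates were pin-tool dosed one day after seeding with one drug alone or with a fixed anchor-drug dose plus five library-drug doses (not always all listed) in √10 steps, then fixed, stained and imaged at 4× after 5 days.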

Erlotinib + Phenformin = compound: C#Cc1cccc(Nc2ncnc3cc(OCCOC)c(OCCOC)cc23)c1 [Erlotinib] + N=C(N)NC(=N)NCCc1ccccc1 [Phenformin] (partner 250 µM)
How it was run: as §1

AT9283 + Crizotinib = compound: O=C(Nc1c[nH]nc1-c1nc2ccc(CN3CCOCC3)cc2[nH]1)NC1CC1 [AT9283] + C[C@@H](Oc1cc(-c2cnn(C3CCNCC3)c2)cnc1N)c1c(Cl)ccc(F)c1Cl [Crizotinib] (partner 1 µM)
How it was run: as §1

AT9283 + Tozasertib = compound: O=C(Nc1c[nH]nc1-c1nc2ccc(CN3CCOCC3)cc2[nH]1)NC1CC1 [AT9283] + Cc1cc(Nc2cc(N3CCN(C)CC3)nc(Sc3ccc(NC(=O)C4CC4)cc3)n2)n[nH]1 [Tozasertib] (partner 0.1 µM)
How it was run: as §1

AT9283 + Pemetrexed = compound: O=C(Nc1c[nH]nc1-c1nc2ccc(CN3CCOCC3)cc2[nH]1)NC1CC1 [AT9283] + Nc1nc2[nH]cc(CCc3ccc(C(=O)N[C@@H](CCC(=O)O)C(=O)O)cc3)c2c(=O)[nH]1 [Pemetrexed] (partner 0.2 µM)
How it was run: as §1

Cell Line	relative viability (Erlotinib + Tozasertib; first compound 0.02 µM)	relative viability (Erlotinib + Tozasertib; first compound 0.2 µM)	relative viability (Erlotinib + Tozasertib; first compound 0.6325 µM)	relative viability (Erlotinib + Tozasertib; first compound 2 µM)	relative viability (Erlotinib + Phenformin; first compound 0.02 µM)	relative viability (Erlotinib + Phenformin; first compound 0.2 µM)	relative viability (Erlotinib + Phenformin; first compound 0.6325 µM)	relative viability (Erlotinib + Phenformin; first compound 2 µM)	relative viability (AT9283 + Crizotinib; first compound 0.003 µM)	relative viability (AT9283 + Crizotinib; first compound 0.03 µM)	relative viability (AT9283 + Crizotinib; first compound 0.09487 µM)	relative viability (AT9283 + Crizotinib; first compound 0.3 µM)	relative viability (AT9283 + Tozasertib; first compound 0.003 µM)	relative viability (AT9283 + Tozasertib; first compound 0.03 µM)	relative viability (AT9283 + Tozasertib; first compound 0.09487 µM)	relative viability (AT9283 + Tozasertib; first compound 0.3 µM)	relative viability (AT9283 + Pemetrexed; first compound 0.003 µM)	relative viability (AT9283 + Pemetrexed; first compound 0.03 µM)	relative viability (AT9283 + Pemetrexed; first compound 0.09487 µM)	relative viability (AT9283 + Pemetrexed; first compound 0.3 µM)
201T	0.965	0.915	0.877	0.707	0.468	0.408	0.465	0.421	0.996	1.02	0.478	0.468	0.871	0.6	0.35	0.302	0.292	0.297	0.279	0.306
A549					0.225	0.196	0.178	0.199	0.717	0.0751	0.0711	0.0659								
A-427	0.251	0.225	0.197	0.162	0.282	0.344	0.423	0.335	0.851	0.482	0.173	0.178	0.186	0.179	0.168	0.161	0.979	0.767	0.272	0.299
ABC-1	0.154	0.172	0.173	0.148	0.248	0.248	0.217	0.233	1.03	0.238	0.182	0.193	0.198	0.17	0.172	0.183				
BEN	0.593	0.462	0.468	0.436	0.276	0.248	0.273	0.269	0.818	0.663	0.207	0.236	0.598	0.503	0.387	0.376	0.622	0.692	0.361	0.365
CAL-12T	0.357	0.226	0.188	0.153	0.543	0.396	0.339	0.262	0.642	0.293	0.276	0.232	0.31	0.29	0.212	0.215	1.36	1.03	0.572	0.31
COR-L23	0.253	0.202	0.163	0.114	0.439	0.452	0.448	0.416	0.616	0.185	0.118	0.158	0.278	0.135	0.112	0.132	0.213	0.165	0.137	0.137
COR-L 105	0.335	0.305	0.217	0.227	0.525	0.245	0.322	0.216	0.73	0.326	0.274	0.237	0.384	0.318	0.283	0.288	1.08	0.699	0.341	0.422
Calu-6									0.742	0.253	0.238	0.291								
ChaGo-K-1	0.214	0.186	0.179	0.185	0.507	0.445	0.482	0.437	0.973	0.416	0.343	0.387	0.196	0.208	0.215	0.236	0.239	0.247	0.188	0.166
EBC-1									0.212	0.178	0.172	0.181								
EKVX	0.329	0.226	0.212	0.111	0.245	0.205	0.127	0.137	0.878	0.663	0.371	0.216	0.377	0.312	0.317	0.183	0.436	0.352	0.211	0.204
EMC-BAC-2	0.279	0.345	0.32	0.25	0.578	0.571	0.559	0.502	0.67	0.36	0.163	0.151	0.283	0.192	0.198	0.133	0.466	0.414	0.367	0.266
EPLC-272H	0.22	0.291	0.235	0.183	0.353	0.254	0.321	0.212	0.951	0.856	0.431	0.14	0.306	0.192	0.203	0.159	0.358	0.212	0.177	0.138
H3255		0.564	0.211	0.142	0.374	0.226	0.246	0.243	0.909	0.77	0.471	0.146	0.664	0.358	0.2	0.161	0.544	0.553	0.46	0.238
HARA	0.0745	0.0897	0.0791	0.0606	0.44	0.407	0.444	0.243	1.1	0.4	0.105	0.13	0.154	0.1	0.0825	0.0852	0.217	0.239	0.167	0.166
HCC-15	0.411	0.444	0.398	0.16	0.472	0.491	0.63	0.382	0.765	0.478	0.139	0.129	0.25	0.134	0.126	0.0965	0.223	0.208	0.143	0.159
HCC-44	1.18	0.421	1.04	0.711	0.239	0.162	0.22	0.165	0.775	0.634	0.457	0.211	0.94	0.621	0.294	0.321	0.629	0.666	0.564	0.694
